US20200222418A1, “USE OF PHENOTHIAZINE DERIVATIVE IN THE TREATMENT OF INFECTION CAUSED BY BACTERIA CARRYING TYPE IV PILI” (priority 2017, published 2020)

Experiments:
[1] = test system: N. meningitidis 2C4.3 aggregates; assay type: cell-based, Neisseria meningitidis; settings: for dispersion of bacterial aggregates formed in suspension: aggregates pre-formed 2 h, 20 min, Trifluoperazine 10-40 μM, Gentamicin 150 μg/ml, Cefotaxim 20 μg/ml
Protocol: N. meningitidis 2C4.3 was grown in liquid culture at 10^7 CFU/ml for 2 h to form bacterial aggregates and were treated with increasing concentrations of Trifluoperazine (10 to 40 μM), Gentamicin (150 μg/ml) or cefotaxim (20 μg/ml) for 20 minutes and bacterial aggregates were immediately visualized using a phase-contrast microscope. […] (B) Quantification of the bacterial aggregation was performed using Image J software.
N. meningitidis 2C4.3 wild type strain and the isogenic derivative mutant PilT ([…]PiIT) were grown in liquid culture at 10^7 CFU/ml for 2 h to form bacterial aggregates and then treated with 50 μM Trifluoperazine. Time lapse phase-contrast video microscopy was performed to visualize the effect on bacterial aggregates over time. Images were taken at the indicated time points of the video.
N. meningitidis 2C4.3 was grown in liquid culture at 10^7 CFU/ml for 2 h to form bacterial aggregates and were treated with 30 μM Trifluoperazine for 30 minutes to induce bacterial dispersion or PBS as a control. The medium was replaced to remove the Trifluoperazine and the reformation of bacterial aggregates were visualized overtime using a phase-contrast microscope.
Bacteria were grown in suspension for 2 h then Phenothiazine derivatives were added at the indicated concentrations.
N. meninigitidis 2C4.3 strain was grown in suspension in wells of a 24 well plate, containing 1 ml of DMEM medium supplemented with 10% heat-inactivated fetal calf serum. After 2 h of growth, Trifluoperazine (or control vehicle) was added at various concentrations ranging from 10 to 40 μM for 20 min and the bacterial aggregates were visualized over time using a phase-contrast microscope.
N. meninigitidis 2C4.3 strain was grown in suspension in wells of a 24 well plate, containing 1 ml of DMEM medium supplemented with 10% heat-inactivated fetal calf serum. After 2 h of growth, various concentrations (0.5 to 80 μM) of phenothiazine-derivative compounds or control vehicle (PBS or DMSO) were added to the wells for 30 min and the bacterial aggregates were visualized using a phase-contrast microscope. Were tested phenothiazine-derivative compounds of: • the Piperazine group: Trifluoperazine (Sigma #T8516), Fluphenazine (Sigma #F4765), Prochlorperazine (Sigma #P9178) Perphenazine (Sigma #P6402); • the Piperidine group: Thioridazine (Sigma #T9025) and Mesoridazin (Sigma #M4068); • the Aliphatic group: Chlorpromazine (Sigma #C8138), Promazine (Sigma #P6656), Triflupromazine (Sigma #1686003) and levomepromazine (Sigma #L0500000).

[2] = test system: Enteropathogenic Escherichia coli (EPEC ΔescN-GFP) microcolonies on HBMEC; assay: Dispersion of EPEC microcolonies on HBMEC; assay type: cell-based; settings: 10 to 50 μM, 30 min
Protocol: Human […] microvascular endothelial cells (HBMEC) were infected with a GFP-expressing mutant Enteropathogenic Escherichia coli, which lacks the ATPase escN (EPEC ΔescN-GFP) for 2 h, then treated with Trifluoperazine (10-50 μM) for 30 minutes, before fixation and immunofluorescence analysis using Alexa Fluor 633 Phalloidin. (A) Representative fluorescence microscopy showing bacterial colony (white dots) formed at the surface of the endothelial cells. (B) Quantification of the bacterial colonization was performed using Image J software.
HBMEC were grown on Thermanox coverslips coated with gelatin 2% for 2 days to reach confluency. Cells were then infected for 1 h with a GFP-expressing mutant Enteropathogenic Escherichia coli (EPEC), which lacks the ATPase escN. This strain is unable to translocate effector proteins and is more prone to form pilus-dependent microcolony at the host cell surface (Jensen et al., 2015). Cells were then washed three times with medium to remove non-adherent bacteria and infection was pursued for 1 extra hour, to allow bacterial growth at the endothelial cell surface to form microcolonies. Trifluoperazine was then added to obtain final concentrations of 10, 20, 30 and 50 μM. After incubation for 30 minutes, cells were washed and fixed in 4% Paraformaldehyde for 10 min, washed three times with PBS. […] Quantification was done with ImageJ software (NIH). […]

[3] = test system: Nm2C4.3 microcolonies on HCMEC/D3 human brain endothelial cell line; assay: Dispersion of meningococcal microcolonies on human brain endothelial cells; assay type: cell-based, Neisseria meningitidis; settings: 10-40 μM, 30 min
Protocol: A. HBMEC were infected with Nm2C4.3 for 1 h 30, treated with Trifluoperazine (10-40 μM) for 30 minutes, before fixation and immunofluorescence analysis using anti-Nm2C4.3 antibody and Alexa Fluor 633 Phalloidin. B. Quantification of the bacterial colonization was performed using Image J software.
HCMEC/D3, a well-established human brain endothelial cell line (Weksler et al, 2013) was grown in EBM-2 basal medium (Lonza, Walkersville, Md., USA) supplemented with 5% Fetal Bovine Serum “Gold”, 10 mM HEPES (PM Laboratories GmbH, Pasching, Austria), 1% Penicillin-Streptomycin, 1% chemically defined lipid concentrate (Invitrogen Ltd, Paisley, UK), 1.4 μM hydrocortisone, 5 μg·ml^−1 ascorbic acid and 1 ng·ml^−1 bFGF (Sigma-Aldrich, St. Louis, Mo.). Cells were grown on Thermanox coverslips coated with rat collagen I for 4 days at 37° C. in a humidified incubator in 5% CO2. Cells were then infected with a suspension of Nm2C4.3 (˜10^7 CFU/ml) in EBM2/FBS during 30 minutes to allow bacterial adhesion. Cells were then washed three times with medium to remove non-adherent bacteria and infection was pursued for 1 h 30: adherent bacteria grew at the endothelial cell surface and formed micro-colonies. Trifluoperazine was then added to obtain final concentrations of 10, 20, 30 and 40 μM. […] Quantification was done with ImageJ software (NIH). […]

[4] = test system: Nm2C4.3 colonization of human brain vessels; set-up: species or system Neisseria meningitidis; settings: 40 μM for 30 min
Protocol: A. Immunofluorescence analysis of CD31 (green), N. meningitidis colonies (red) and nucleus (blue) in the cortical region of serial brain sections from the same donor infected with Nm2C4.3 wild-type strain for 1 h, then treated with Trifluoperazine (40 μM for 30 min) or PBS alone, as a control. Scale bars, 20 μm. Images are representative of 2 different human brain sections. B. Mean±s.e.m. of the vascular colonization index. Analysis of 50 sections per brain section, n=2 sections per condition. ***P<0.001, one-way ANOVA.
In situ infection of fresh human brain sections was performed as described previously (Bernard et al, 2014). […] Adherent meningococci were detected by immunofluorescence analysis: brain sections were incubated with the following primary antibodies for 2 h in PBS/BSA 0.1%: monoclonal anti-human CD31/PECAM-1 mouse monoclonal antibody (clone HEC7, ABCAM, ab119339) and a rabbit polyclonal serum anti-Nm 2C4.3 strain (1:3000). […] Entire samples were scanned using a Lamina (Perkin Helmer) and were further analysed using confocal microscopy (spinning disk Leica, 63x). Quantification analysis of the images (n=50 per section) was performed using ImageJ software (NIH). […]

With `CN[C@@H]1[C@@H](O)C(O[C@@H]2[C@@H](O)[C@H](O[C@H]3O[C@H]([C@@H](C)NC)CC[C@H]3N)[C@@H](N)C[C@H]2N)OC[C@]1(C)O` (stereo partly drawn) [Gentamicin, (3R,4R,5R)-2-{[(1S,2S,3R,4S,6R)-4,6-diamino-3-{[(2R,3R,6S)-3-amino-6-[(1R)-1-(methylamino)ethyl]oxan-2-yl]oxy}-2-hydroxycyclohexyl]oxy}-5-methyl-4-(methylamino)oxane-3,5-diol] the “dispersion of bacterial aggregates formed in suspension” value [1] was “did not significantly induce the dispersion”.

`CN1CCN(CCCN2c3ccccc3Sc3ccc(C(F)(F)F)cc32)CC1` [Trifluoperazine] was tested, and the “dispersion of EPEC microcolonies at the endothelial cell surface” value [2] was “induced the dispersion of these microbial colonies in a dose-dependent manner”, the “dispersion of meningococcal microcolonies at the surface of human brain endothelial cells” value [3] was “induced their dispersion” and the “dispersal of meningococcal microcolonies in infected brain sections” value [4] was “induced the dispersal”. The “reversibility of the effect on aggregation upon removal of the drug” value ([1]; 30 μM for 30 minutes, then medium replaced) was “reversible”, the “dispersion of bacterial aggregates formed in suspension” value [1] was “induced their dispersion” and the “time after addition within which dispersion of aggregates occurs” value ([1]; time lapse video microscopy, 50 μM) was 10 to 15 min.
